# Assay results from US5804601A, “Aromatic hydroxamic acid compounds, their production and use” (Takeda Chemical Industries, Ltd., priority 1995, dated 1998).
# pEC50: −log10 of the molar value.
# System: rat mixed cerebral cell culture
# Test: Neutralizing effect on LPS-induced cytotoxicity in a rat mixed cerebral cell culture system (LIC assay), MTT method
# Assay type: cell-based
# Conditions: concentration giving a recovery rate of 50%, usually 4-5 days incubation, read-out: ED50 (the source's name)
# Procedure: Neutralizing effect on lipopolysaccharide (LPS)--induced cytotoxicity in a rat mixed cerebral cell culture system (LIC assay)
# LPS, a substance known to activate glial cells (astrocytes, microglia), was added to a rat mixed cerebral cell culture system and the compounds which would neutralize the cytotoxicity induced by LPS were screened by the following method.
# (1) Neonatal rat mixed cerebral cell culture
# From neonatal Crj:CD (SD) rats (1-3 days old, Charles-River Japan, Ltd.), the brains were isolated and placed in ice-cold D-MEM/10% FCS (Dulbecco's cell culture minimal essential medium supplemented with 10% of fetal calf serum, 100 units/ml of penicillin and 100 μg/ml of streptomycin). Then, mixed cerebral cell cultures were carried out in the following steps.
# 1. The cerebrums were separated from the enucleated brains and the meninges was removed under the stereoscopic microscope.
# 2. The cerebrums were placed in a nylon-mesh (100-200 μm) bag to filter with the aid of a rubber policeman.
# 3. Using ice-cold D-MEM/10% FCS, the cells were washed 3 times (1000 rpm, 8 min.). Then, this cell suspension was filtered through a cell strainer (40 μm mesh, Falcon 2340) and the number of viable cells was counted by the trypan blue method.
# 4. The cells, were seeded in wells of a 96-well microtiter plate (Nunc) at a cell density of 1×10^5 cells/100 μl/well, and started a cell culture at 37° C.
# 5. One week later, 100 μl/well of D-MEM/10% FCS was added.
# 6. The plate was further incubated for about 1-2 weeks and the neutralizing activity of the test compound was evaluated by the following method.
# (2) Evaluation of neutralizing activity in LPS-induced cytotoxicity
# 1. Following the rat mixed cerebral cell culture described in (1) (after 2-3 weeks of incubation), the medium was discarded from the respective wells of the 96-well microtiter plate, and 50 μl/well of fresh D-MEM/2% FCS was added.
# 2. A test sample and LPS (Difco, E. coli 011: B4, Bacto) of a suitable concentration, 25 μl each per well, were respectively added. D-MEM/2% FCS was used as the medium.
# As the test sample, each of the compounds shown in Table 32 was dissolved in DMSO at a concentration of 10 ^-2 M and the solution was diluted with D-MEM/2% FCS and submitted for assay.
# 3. After a suitable period (usually 4-5 days) of incubation, the degree of cytotoxic effect was assessed by the microscopic observation, and MTT method.
# (3) MTT [3-(4,5-dimethylthiazol-2-yl)-2,5-diphenyltetra zolium bromide] method
# Ten μl of MTT solution (5 mg/ml, Sigma) dissolved in phosphate-buffered saline was added to each well. After 4-6 hours of incubation (37° C., under 10% CO2), 100 μl/well of 0.01N-hydrochloric acid containing 10% SDS was added, whereby the formed formazan was dissolved. After complete dissolution, the absorbance (540-590 nm) was measured for each well.
# The ED50 values were determined by calculating the recovery rates by means of the following equation and plotting the concentrations of compounds giving a recovery rate of 50% on graph paper.
# Recovery rate (%)=(C-B)×100/(A-B)
# [A: the absorbance at 550 nm of the control well to which only the medium had been added
# B: the absorbance at 550 nm of the well to which LPS had been added
# C: the absorbance at 550 nm of the well to which both LPS and the test compound had been added]
row,Structure (SMILES),pEC50
1,"O=C(CCCCCCc1ccc2ccccc2n1)NO [Compound 1-3, 7-(2-quinolyl)heptanohydroxamic acid]",7.70
2,"O=C(CCCC/C=C\c1ccc2ccccc2n1)NO [Compound 1-4, (Z)-7-(2-quinolyl)-6-heptenohydroxamic acid]",7.40
3,"N#CC(CCCCCC(=O)NO)c1cccc2ccccc12 (stereo not shown) [Compound 3-2, 7-Cyano-7-(1-naphthyl)heptanohydroxamic acid]",7.52
4,"COc1ccc(C(CCCCC(=O)NOC(C)=O)C2=C(C)C(=O)c3ccccc3C2=O)cc1 (stereo not shown) [Compound 7-1, O-Acetyl-6-(4-methoxyphenyl)-6-(3-methyl-1,4-naphthoquinon-2-yl)hexanohydroxamic acid]",7.30
5,"CC(=O)ONC(=O)CCCCCC(C1=C(C)C(=O)C(C)=C(C)C1=O)c1ccccc1 (stereo not shown) [Compound 7-2, O-acetyl-7-(3,5,6-trimethylbenzoquinon-2-yl)-7-phenylheptanohydroxamic acid]",7.30
6,"CC(=O)ONC(=O)CCCCCCc1ccc2ccccc2c1O [Compound 7-3, O-acetyl-7-(1-hydroxy-2-naphthyl)heptano-hydroxamic acid]",6.40
7,"CC(=O)ONC(=O)CCCCCc1ccc2ccccc2n1 [Compound 7-4, O-acetyl-6-(2-quinolyl)hexanohydroxamic acid]",6.40
8,"CCC(=O)ONC(=O)CCCCCC(C1=C(C)C(=O)C(C)=C(C)C1=O)c1ccccc1 (stereo not shown) [Compound 7-5, O-propionyl-7-(3,5,6-trimethylbenzoquinon-2-yl)-7-phenylheptanohydroxamic acid]",7.30
9,"CCC(=O)ONC(=O)CCCCC(C1=C(C)C(=O)c2ccccc2C1=O)c1ccc(OC)cc1 (stereo not shown) [Compound 7-6, O-propionyl-6-(4-methoxyphenyl)-6-(3-methyl-1,4-naphthoquinon-2-yl)hexanohydroxamic acid]",7.30
10,"CCC(=O)ONC(=O)CCCCCc1ccc2ccccc2n1 [Compound 7-7, O-propionyl-6-(2-quinolyl)hexanohydroxamic acid]",6.30
11,"CCC(=O)ONC(=O)CCCCCC(C#N)c1cccc2ccccc12 (stereo not shown) [Compound 7-8, O-propionyl-7-cyano-7-(1-naphthyl)heptanohydroxamic acid]",7.52
12,"CC1=C(C)C(=O)C(C(CCCCCC(=O)NOC(=O)CC(C)C)c2ccccc2)=C(C)C1=O (stereo not shown) [Compound 7-9, O-isovaleryl-7-(3,5,6-trimethylbenzoquinon-2-yl)-7-phenylheptanohydroxamicacid]",6.70
13,"COc1ccc(C(CCCCC(=O)NOC(=O)C(C)C)C2=C(C)C(=O)c3ccccc3C2=O)cc1 (stereo not shown) [Compound 7-10, O-isobutyryl-6-(4-methoxyphenyl)-6-(3-methyl-1,4-naphthoquinon-2-yl)hexanohydroxamic acid]",6.52
14,"CC1=C(C)C(=O)C(C(CCCCCC(=O)NOC(=O)C(C)C)c2ccccc2)=C(C)C1=O (stereo not shown) [Compound 7-11, O-isobutyryl-7-(3,5,6-trimethylbenzoquinon-2-yl)-7-phenylheptanohydroxamicacid]",6.70
15,"N#CC(CCCCCC(=O)NOC(=O)c1ccccc1)c1cccc2ccccc12 (stereo not shown) [Compound 7-12, O-benzoyl-7-cyano-7-(1-naphthyl)heptano-hydroxamic acid]",7.52
16,"N#CC(CCCCC(=O)NOC(=O)c1ccccc1)c1cccc2ccccc12 (stereo not shown) [Compound 7-13, O-benzoyl-6-cyano-6-(1-naphthyl)hexanohyroxamic acid]",7.30
17,"COc1ccc(C(CCCCC(=O)NOC(=O)c2ccccc2)C2=C(C)C(=O)c3ccccc3C2=O)cc1 (stereo not shown) [Compound 7-14, O-benzoyl-6-(4-me-Ehoxyphenyl)-6-(3-methyl-1,4-naphthoquinon-2-yl)hexanohydroxamic acid]",6.70
18,"CC1=C(C)C(=O)C(C(CCCCCC(=O)NOC(=O)c2ccccc2)c2ccccc2)=C(C)C1=O (stereo not shown) [Compound 7-15, O-benzoyl-7-(3,5,6-trimethylbenzoquinon-2-yl)-7-phenylheptanohydroxamic acid]",6.30
19,"O=C(CCCCCc1ccc2ccccc2n1)NOC(=O)c1ccccc1 [Compound 7-16, O-benzoyl-6-(2-quinolyl)hexanohydroxamic acid]",6.52
